From patent US8835472B2, “Compounds, pharmaceutical compositions and uses thereof” (Boehringer Ingelheim International GmbH, priority 2010, dated 2014) come the findings set out here.

For the assay, the target named is human ACC2 (Homo sapiens (Human), UniProt O00763). The experiment in a line: ACC2 assay, spectrophotometric 384 well assay (NADH-linked, coupled lactate dehydrogenase/pyruvate kinase reaction). In kind it is biochemical. To be noted: hACC2 construct lacking the 128 N-terminal amino acids; 25° C., 340 nm over 15 minutes. In short, it runs like this: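 N-terminally truncated human ACC2 (lacking 128 residues) expressed in insect cells; coupled PK/LDH read-out of ADP as NADH loss at 340 nm, 15 min, 25 °C. Tris pH 7.5 with citrate and KHCO3; 200 μM acetyl-CoA, 500 μM ATP, 1% DMSO.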
Chain of human ACC2 (O00763 129-2458): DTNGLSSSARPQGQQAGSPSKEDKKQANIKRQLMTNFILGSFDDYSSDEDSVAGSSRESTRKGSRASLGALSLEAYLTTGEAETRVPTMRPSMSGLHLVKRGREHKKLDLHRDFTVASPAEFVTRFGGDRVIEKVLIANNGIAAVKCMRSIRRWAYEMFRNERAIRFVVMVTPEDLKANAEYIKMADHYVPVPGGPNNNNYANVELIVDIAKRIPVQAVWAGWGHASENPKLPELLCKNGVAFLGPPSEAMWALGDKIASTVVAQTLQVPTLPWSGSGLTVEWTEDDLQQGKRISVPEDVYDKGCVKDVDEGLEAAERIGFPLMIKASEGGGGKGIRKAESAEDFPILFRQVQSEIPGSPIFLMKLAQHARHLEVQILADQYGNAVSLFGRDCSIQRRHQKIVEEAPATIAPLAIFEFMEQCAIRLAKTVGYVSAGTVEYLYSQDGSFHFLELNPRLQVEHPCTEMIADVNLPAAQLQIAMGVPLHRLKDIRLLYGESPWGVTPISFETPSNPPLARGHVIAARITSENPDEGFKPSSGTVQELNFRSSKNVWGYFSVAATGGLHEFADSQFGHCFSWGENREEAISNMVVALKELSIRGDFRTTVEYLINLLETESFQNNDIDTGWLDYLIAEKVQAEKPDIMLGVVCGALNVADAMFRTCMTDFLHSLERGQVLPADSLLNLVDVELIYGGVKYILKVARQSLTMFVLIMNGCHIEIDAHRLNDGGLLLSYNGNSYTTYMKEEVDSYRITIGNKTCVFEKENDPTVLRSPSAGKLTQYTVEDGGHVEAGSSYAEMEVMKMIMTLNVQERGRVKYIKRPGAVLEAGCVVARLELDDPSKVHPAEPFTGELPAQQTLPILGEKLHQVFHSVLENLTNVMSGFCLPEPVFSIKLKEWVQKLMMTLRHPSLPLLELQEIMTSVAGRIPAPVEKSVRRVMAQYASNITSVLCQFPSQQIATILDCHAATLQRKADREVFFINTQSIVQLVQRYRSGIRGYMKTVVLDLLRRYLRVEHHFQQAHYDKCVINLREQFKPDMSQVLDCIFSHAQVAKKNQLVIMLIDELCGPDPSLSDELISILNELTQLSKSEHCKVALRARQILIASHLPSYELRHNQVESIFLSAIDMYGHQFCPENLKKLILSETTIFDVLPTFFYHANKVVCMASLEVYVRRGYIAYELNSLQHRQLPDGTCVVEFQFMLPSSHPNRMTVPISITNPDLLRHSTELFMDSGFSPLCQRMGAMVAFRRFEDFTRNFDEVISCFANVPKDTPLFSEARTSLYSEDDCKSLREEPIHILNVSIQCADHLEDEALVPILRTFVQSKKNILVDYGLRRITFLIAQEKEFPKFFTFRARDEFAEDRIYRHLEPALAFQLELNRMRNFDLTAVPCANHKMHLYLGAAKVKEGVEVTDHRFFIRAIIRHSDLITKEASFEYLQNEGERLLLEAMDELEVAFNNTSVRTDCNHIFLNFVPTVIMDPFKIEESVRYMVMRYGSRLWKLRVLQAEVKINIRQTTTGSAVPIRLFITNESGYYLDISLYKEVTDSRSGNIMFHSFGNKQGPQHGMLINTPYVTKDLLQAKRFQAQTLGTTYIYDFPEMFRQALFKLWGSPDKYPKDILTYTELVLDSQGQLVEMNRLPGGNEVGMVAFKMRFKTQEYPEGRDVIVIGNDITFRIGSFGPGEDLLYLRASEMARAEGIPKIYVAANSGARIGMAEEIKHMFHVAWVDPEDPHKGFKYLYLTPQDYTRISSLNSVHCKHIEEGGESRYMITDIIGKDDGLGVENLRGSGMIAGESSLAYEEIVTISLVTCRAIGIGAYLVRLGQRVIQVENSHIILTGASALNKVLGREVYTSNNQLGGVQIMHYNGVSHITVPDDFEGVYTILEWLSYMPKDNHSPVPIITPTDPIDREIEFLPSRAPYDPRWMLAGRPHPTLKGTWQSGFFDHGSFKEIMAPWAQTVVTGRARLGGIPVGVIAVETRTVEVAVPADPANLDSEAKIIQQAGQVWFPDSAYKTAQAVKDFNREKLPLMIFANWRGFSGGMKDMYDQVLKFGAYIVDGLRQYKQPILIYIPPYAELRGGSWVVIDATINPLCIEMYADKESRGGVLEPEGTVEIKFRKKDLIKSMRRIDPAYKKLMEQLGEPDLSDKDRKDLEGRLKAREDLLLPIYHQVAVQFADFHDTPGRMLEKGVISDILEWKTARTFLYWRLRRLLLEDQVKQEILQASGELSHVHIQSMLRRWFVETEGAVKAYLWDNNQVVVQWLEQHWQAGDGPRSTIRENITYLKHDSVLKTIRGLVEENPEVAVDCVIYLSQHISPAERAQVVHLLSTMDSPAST
In general, IC50 refers to the concentration at which inhibition is half-maximal. Read a low IC50 as inhibition by little substance. In turn, `COC(=O)NC(C)Cc1ccc(C#Cc2cnc(N3CCC4(CC4)C3)nc2)cc1` (stereo not shown) [Example 13.29] showed an IC50 of 610 nM.
With `COC(=O)NC(C)Cc1ccc(C#Cc2cnc(N3CC4CCCC4C3)nc2)cc1` (stereo not shown) [Example 13.30] the figure was 360 nM.
To `COC(=O)NC(C)Cc1ccc(C#Cc2cnc(NC3CCC3)nc2)cc1` (stereo not shown) [Example 13.31] belongs 500 nM; to `COC(=O)NC(C)Cc1ccc(C#Cc2cnc(N3CCCCC3)nc2)cc1` (stereo not shown) [Example 13.32], 410 nM.
To `COC(=O)NC(C)Cc1ccc(C#Cc2cnc(NCc3cccnc3)nc2)cc1` (stereo not shown) [Example 13.33] belongs 1800 nM; to `COC(=O)NC(C)Cc1ccc(C#Cc2cnc(N3CCCC3)nc2)cc1` (stereo not shown) [Example 13.34], 4700 nM.
Turning to `COC(=O)NC(C)Cc1ccc(C#Cc2cnc(NC3CCCC3)nc2)cc1` (stereo not shown) [Example 13.35], the IC50 came to 290 nM.
In turn, `COC(=O)NC(C)Cc1ccc(C#Cc2cnc(NC3CC3)nc2)cc1` (stereo not shown) [Example 13.36] showed an IC50 of 1600 nM.
In the case of `CC(Cc1ccc(C#Cc2cnc(NCc3ccncc3)nc2)cc1)NC(=O)C1CC1` (stereo not shown) [Example 13.37], the IC50 was 2600 nM.
Take `COC(=O)NC(C)Cc1ccc(C#Cc2cnc(NC(C)C)nc2)cc1` (stereo not shown) [Example 13.38]: the IC50 is 690 nM.
With `CCC(C)Nc1ncc(C#Cc2ccc(CC(C)NC(=O)OC)cc2)cn1` (stereo not shown) [Example 13.39] the figure was 640 nM; with `COC(=O)NC(C)Cc1ccc(C#Cc2cnc(N3CCC3)nc2)cc1` (stereo not shown) [Example 13.40], 2200 nM.
To `CCNc1ncc(C#Cc2ccc(CC(C)NC(=O)OC)cc2)cn1` (stereo not shown) [Example 13.41] belongs 2400 nM.
With `COC(=O)NC(C)Cc1ccc(C#Cc2cnc(NCCF)nc2)cc1` (stereo not shown) [Example 13.42] the figure was 4500 nM; with `CC(Cc1ccc(C#Cc2cnc(N3CC4CCCC4C3)nc2)cc1)NC(=O)C1CC1` (stereo not shown) [Example 13.43], 580 nM; with `CC(Cc1ccc(C#Cc2cnc(NC3CCC3)nc2)cc1)NC(=O)C1CC1` (stereo not shown) [Example 13.44], 320 nM.
In turn, `CC(Cc1ccc(C#Cc2cnc(N3CCCCC3)nc2)cc1)NC(=O)C1CC1` (stereo not shown) [Example 13.45] yielded an IC50 of 910 nM.
To `CC(Cc1ccc(C#Cc2cnc(NCc3cccnc3)nc2)cc1)NC(=O)C1CC1` (stereo not shown) [Example 13.46] belongs 2700 nM; to `CC(Cc1ccc(C#Cc2cnc(NC3CCCC3)nc2)cc1)NC(=O)C1CC1` (stereo not shown) [Example 13.47], 600 nM.
To `CC(Cc1ccc(C#Cc2cnc(NC3CC3)nc2)cc1)NC(=O)C1CC1` (stereo not shown) [Example 13.48] belongs 1300 nM; to `CC(C)Nc1ncc(C#Cc2ccc(CC(C)NC(=O)C3CC3)cc2)cn1` (stereo not shown) [Example 13.49], 2600 nM; to `CCC(C)Nc1ncc(C#Cc2ccc(CC(C)NC(=O)C3CC3)cc2)cn1` (stereo not shown) [Example 13.50], 1500 nM.
`CC(Cc1ccc(C#Cc2cnc(N3CCC3)nc2)cc1)NC(=O)C1CC1` (stereo not shown) [Example 13.51]: the IC50 was determined as 2200 nM.
Take `CCNc1ncc(C#Cc2ccc(CC(C)NC(=O)C3CC3)cc2)cn1` (stereo not shown) [Example 13.52]: the IC50 came to 5200 nM.
For `CC(Cc1ccc(C#Cc2cnc(NCCF)nc2)cc1)NC(=O)C1CC1` (stereo not shown) [Example 13.53], the IC50 worked out at 5200 nM.
With `CC(Cc1ccc(C#Cc2cnc(NCc3ccccc3)nc2)cc1)NC(=O)C1CC1` (stereo not shown) [Example 13.54] the figure was 200 nM; with `CC(=O)NC(C)Cc1ccc(C#Cc2cnc(NCc3ccccc3C)nc2)cc1` (stereo not shown) [Example 13.55], 130 nM.
With `CC(=O)NC(C)Cc1ccc(C#Cc2cnc(NCc3cccc(C)c3)nc2)cc1` (stereo not shown) [Example 13.56] the figure was 970 nM; with `CC(=O)NC(C)Cc1ccc(C#Cc2cnc(N3CCC(C)(C)CC3)nc2)cc1` (stereo not shown) [Example 13.57], 220 nM.
With `CC(=O)NC(C)Cc1ccc(C#Cc2cnc(N(C)C)nc2)cc1` (stereo not shown) [Example 13.58] the figure was 1200 nM.
Compound `CC(=O)NC(C)Cc1ccc(C#Cc2cnc(NCC(F)(F)F)nc2)cc1` (stereo not shown) [Example 13.59] yielded an IC50 of 360 nM.
With `CNc1ncc(C#Cc2ccc(CC(C)NC(C)=O)cc2)cn1` (stereo not shown) [Example 13.60] the figure was 250 nM; with `CC(=O)NC(C)Cc1ccc(C#Cc2cnc(NCc3cnn(C)c3)nc2)cc1` (stereo not shown) [Example 13.61], 3800 nM.
With `CC(=O)NC(C)Cc1ccc(C#Cc2cnc(N[C@H]3CCc4ccccc43)nc2)cc1` (stereo partly shown) [Example 13.62] the figure was 330 nM.
Turning to `CC(=O)NC(C)Cc1ccc(C#Cc2cnc(N[C@@H]3CCc4ccccc43)nc2)cc1` (stereo partly shown) [Example 13.63], inhibition was half-maximal at 200 nM (IC50).
As for `CC(=O)NC(C)Cc1ccc(C#Cc2cnc(N3Cc4ccccc4C3)nc2)cc1` (stereo not shown) [Example 13.64], the IC50 worked out at 800 nM.
To `CC(=O)NC(C)Cc1ccc(C#Cc2cnc(NCCF)nc2)cc1` (stereo not shown) [Example 13.65] belongs 1600 nM.
To `CC(=O)NC(C)Cc1ccc(C#Cc2cnc(NC(C)C3CC3)nc2)cc1` (stereo not shown) [Example 13.66] belongs 150 nM.
For `CC(=O)NC(C)Cc1ccc(C#Cc2cnc(NCC3CC3(C)C)nc2)cc1` (stereo not shown) [Example 13.67], half-maximal inhibition (IC50) required 660 nM.
Compound `CC(=O)NC(C)Cc1ccc(C#Cc2cnc(N3CCC(C)(C)C3)nc2)cc1` (stereo not shown) [Example 13.68] displayed an IC50 of 230 nM.
With `CC(=O)NC(C)Cc1ccc(C#Cc2cnc(NCc3csc(C)n3)nc2)cc1` (stereo not shown) [Example 13.69] the figure was 5000 nM; with `CC(=O)NC(C)Cc1ccc(C#Cc2cnc(NCc3ncccn3)nc2)cc1` (stereo not shown) [Example 13.70], 6800 nM; with `CC(=O)NC(C)Cc1ccc(C#Cc2cnc(N3CCC4(CCC4)C3)nc2)cc1` (stereo not shown) [Example 13.71], 210 nM.
With `CC(=O)NC(C)Cc1ccc(C#Cc2cnc(N3CCC4(CC4)C3)nc2)cc1` (stereo not shown) [Example 13.72] the figure was 190 nM.
With `CC(=O)NC(C)Cc1ccc(C#Cc2cnc(N3CCC4(CCCC4)C3)nc2)cc1` (stereo not shown) [Example 13.73] the figure was 280 nM; with `COC1(C)CCN(c2ncc(C#Cc3ccc(CC(C)NC(C)=O)cc3)cn2)CC1` (stereo not shown) [Example 13.74], 1700 nM; with `CC(=O)NC(C)Cc1ccc(C#Cc2cnc(NCCC(F)(F)F)nc2)cc1` (stereo not shown) [Example 13.75], 170 nM.
`CC(=O)NC(C)Cc1ccc(C#Cc2cnc(NCC3CCCC3)nc2)cc1` (stereo not shown) [Example 13.76] showed an IC50 of 600 nM.
Compound `CC(=O)NC(C)Cc1ccc(C#Cc2cnc(N3CCCC3)nc2)cc1` (stereo not shown) [Example 13.77] gave an IC50 of 220 nM.
In turn, `CC(=O)NC(C)Cc1ccc(C#Cc2cnc(NC3CC3)nc2)cc1` (stereo not shown) [Example 13.78] showed an IC50 of 130 nM.
Compound `CC(=O)NC(C)Cc1ccc(C#Cc2cnc(NCc3ccc(C)cc3)nc2)cc1` (stereo not shown) [Example 13.79] registered an IC50 of 110 nM.
With `COc1ccccc1CNc1ncc(C#Cc2ccc(CC(C)NC(C)=O)cc2)cn1` (stereo not shown) [Example 13.80] the figure was 480 nM.
`CCC(CC)Nc1ncc(C#Cc2ccc(CC(C)NC(C)=O)cc2)cn1` (stereo not shown) [Example 13.81] gave an IC50 of 330 nM.
Take `CC(=O)NC(C)Cc1ccc(C#Cc2cnc(NCc3ccncc3)nc2)cc1` (stereo not shown) [Example 13.82]: 1200 nM corresponded to half-maximal inhibition (IC50).
To `CC(=O)NC(C)Cc1ccc(C#Cc2cnc(NCCC(C)(C)C)nc2)cc1` (stereo not shown) [Example 13.83] belongs 190 nM; to `CCC(C)CNc1ncc(C#Cc2ccc(CC(C)NC(C)=O)cc2)cn1` (stereo not shown) [Example 13.84], 1000 nM.
Regarding `C=C1CCN(c2ncc(C#Cc3ccc(CC(C)NC(C)=O)cc3)cn2)CC1` (stereo not shown) [Example 13.85], the IC50 is 80 nM.
With `COc1ccc(CNc2ncc(C#Cc3ccc(CC(C)NC(C)=O)cc3)cn2)cc1` (stereo not shown) [Example 13.86] the figure was 120 nM; with `CC(=O)NC(C)Cc1ccc(C#Cc2cnc(NCCc3ccccc3)nc2)cc1` (stereo not shown) [Example 13.87], 1000 nM; with `C[C@H](NC(=O)C1CC1)c1ccc(C#Cc2cnc(NC3CCC3)nc2)cc1` [Example 13.88], 3100 nM.
With `CC(=O)N[C@@H](C)c1ccc(C#Cc2cnc(NC3CCC3)nc2)cc1` [Example 13.89] the figure was 1000 nM; with `CC(=O)N[C@@H](C)c1ccc(C#Cc2cnc(NC3CC3)nc2)cc1` [Example 13.90], 960 nM; with `C[C@H](NC(=O)C1CC1)c1ccc(C#Cc2cnc(NC3CC3)nc2)cc1` [Example 13.91], 2900 nM.
With `CC(=O)N[C@@H](C)c1ccc(C#Cc2cnc(NCc3ccccc3)nc2)cc1` [Example 13.92] the figure was 7300 nM; with `CC(=O)N[C@@H](C)c1ccc(C#Cc2cnc(N3CC4CCCC4C3)nc2)cc1` (stereo partly shown) [Example 13.93], 270 nM; with `CC(=O)N[C@@H](C)c1ccc(C#Cc2cnc(NCCC(F)(F)F)nc2)cc1` [Example 13.94], 3600 nM.
In turn, `CCNc1ncc(C#Cc2ccc([C@H](C)NC(C)=O)cc2)cn1` [Example 13.95] returned an IC50 of 2800 nM.
In turn, `CSc1nccc(C#Cc2ccc(CC(C)NC(C)=O)cc2)n1` (stereo not shown) [Example 14.1, N-{1-Methyl-2-[4-(2-methylsulfanyl-pyrimidin-4-ylethynyl)-phenyl]-ethyl}acetamide] yielded an IC50 of 1200 nM.
To `CCOc1ccc(C#Cc2ccc(C(C)NC(C)=O)cc2)cn1` (stereo not shown) [Example 14.2] belongs 5900 nM; to `CCCOc1cc(C#Cc2ccc(C(C)NC(C)=O)cc2)ccn1` (stereo not shown) [Example 14.3], 450 nM; to `CCOc1cc(C#Cc2ccc(C(C)NC(C)=O)cc2)ncn1` (stereo not shown) [Example 14.4], 1500 nM.
To `CCCn1ccc(C#Cc2ccc(CC(C)NC(C)=O)cc2)cc1=O` (stereo not shown) [Example 14.5] belongs 4100 nM.
With `CC(=O)NC(C)Cc1ccc(C#Cc2ccc(OC3CCC3)cc2)cc1` (stereo not shown) [Example 14.6] the figure was 120 nM; with `CC(=O)N[C@@H](C)c1ccc(C#Cc2ccc(OC3CCC3)cc2)cc1` [Example 14.7], 70 nM; with `COc1ccc(C#Cc2ccc(CCC(C)NC(C)=O)cc2)cn1` (stereo not shown) [Example 14.8], 1300 nM.
`CC(=O)NC(C)CCc1ccc(C#Cc2ccc(OC(C)C)cc2)cc1` (stereo not shown) [Example 14.9] yielded an IC50 of 180 nM.
